Measurements from article PMC5651866, “Halogenated Chrysins Inhibit Dengue and Zika Virus Infectivity” (Scientific Reports, 2017).

What was measured:
DENV1 (16007) = assay: Antiviral efficacy (EC50) in virus infected LLC/MK2 cells, plaque assay; assay type: cell-based, Dengue virus
Protocol: Compound at various concentrations were added to virus infected LLC/MK2 cells and viral titers were accessed by plaque titration of supernatants as previously described.
LLC/MK2 cells were seeded at 5 × 10^4 cells into each well of 24-well plate and incubated overnight at 37 °C under 5% CO2. Cells were infected with DENV2 at the multiplicity of infection (M.O.I.) of 0.1, unless indicated otherwise, for 1 h with gentle rocking every 15 min. Cells were washed with phosphate buffer saline (PBS) and incubated with 1 ml of MEM medium supplemented with 1% FBS as previously described. The compounds were prepared in dimethylsulfoxide (DMSO) at the indicated concentrations before addition to viral infected cells. Supernatants were collected after 5 day incubation and analyzed by plaque titration[9].
Compounds were prepared in DMSO at 8–12 different concentrations and added to virus infected cells as previously described. Supernatants were collected and the EC50 values were calculated from nonlinear regression analysis.

DENV2 = assay: Time-of-drug addition study (TOA) in DENV2 infected LLC/MK2 cells; assay type: cell-based, Dengue virus; settings: 10 μM; for decrease of DENV2 plaque titer from DMSO-treated baseline: supernatants
Protocol: To access the stage of the viral life cycle affected by FV13, we performed a time-of-addition assay. Briefly, FV13 (10 μM) was added to DENV2 infected LLC/MK2 cells at various time points as described in Methods section. DMSO was added in parallel as a control treatment. Supernatants were collected for plaque titration and cell lysates were collected for RT-qPCR analysis. […] If the drug was added at 12 hpi or later, only 1-log decrease was observed (Fig. 4A,B). […] The first molecular target could interact with FV13 earlier than 2 hpi and its effect was still visible until 8–10 hpi. The other target could locate at late post-replication steps such as assembly, maturation, or release because a 1-log discrepancy between plaque and RT-qPCR titers indicated genome replication was unaffected. Further investigations will reveal insights into the actual target of this compound.
After supernatant collection, the remaining cells in experimental plates were extracted for viral RNAs using TRIzol reagent (Invitrogen, California, USA) according to the manufacturer’s protocol. The samples were loaded into the Direct-zol™ RNA MiniPrep (Zymo research, California, USA) and quantified by Nanodrop spectrophotometry (Eppendorf, New York, USA). The RT-qPCR was performed with a Step-OnePlus Real-Time PCR System (Applied Biosystems, California, USA.) with 1 × Power SYBRGreen PCR Master Mix, 400 nM each of capsid primers[40] or 250 nM of NS1 primers[41] and 0.1 µg of total RNA. The reactions were then cycled at 48 °C 30 min and 95 °C 10 min, followed by 45 cycles of 95 °C for 20 s (denaturation), 55 °C for 30 s (annealing), 72 °C for 30 s (extension). Each sample was analyzed in triplicated and results were confirmed by two independent experiments.
LLC/MK2 cells were seeded in 24-well plate and incubated as previously described. Cells were then infected with DENV2 (M.O.I. of 0.1). FV13 (10 µM) was added at various time points, early time points (−1, 0, 2, 4, 6, 8, 10, and 12 hpi) and late time points (12, 14, 16, 20, and 24 hpi) and the plates were incubated for 5 days. Supernatants were collected to determine the viral titer by plaque titration assay and the cells were collected to determine viral RNA content by RT-qPCR. Results were confirmed by three independent experiments in which each time point was tested in duplicate.

[1] = test system: DENV2 infected C6/36 cells; assay: Fusion inhibition study in DENV2 infected C6/36 cells; assay type: cell-based, Dengue virus; settings: 10 and 25 µM; M.O.I. of 0.02; in words
Protocol: We further explored whether the compound would block the viral infectivity by neutralization. We set up the attachment inhibition assay by incubating DENV2 with LLC/MK2 cells at 4 °C for 1 h and FV13 was added before adsorption (pre-attachment), simultaneous with adsorption (co-attachment), and after adsorption (post-attachment) (Fig. 5A). DMSO was used as a mock treatment and added in parallel to FV13 to the experiment. Cells were incubated until cytopathic effects appeared under microscope (Fig. 5B). Supernatants and cells were then analyzed by plaque titration (Fig. 5C) and RT-qPCR (Fig. 5D), respectively. […] Therefore, the major targets of FV13 inhibition appear to function after attachment, possibly at the fusion or translation steps. […] (Supplementary 1). Therefore, fusion was unlikely the major target of FV13. We concluded that one of the major targets of FV13 functions early after infection and attachment and fusion are not critically affected. Flavivirus translation initiates within 1 to 5 hpi[26].
The assay protocol was adapted from Ichiyama et al., 2013 and Poh et al., 20091,2. C6/36 cells were seeded at 2x10^5 cells per well in 24-well plate and incubated overnight. Cells were infected with DENV2 (M.O.I. of 0.02) at 28 °C for 1 h with gentle rocking every 15 min. […] The cells were closely monitored under microscope. […]

[2] = Viability of DENV2/BHK-21 replicon cells; assay type: cell-based; settings: hamster, 5 and 10 µM, read-out: viable replicon cells
Protocol: Next, we studied FV13 inhibition in a DENV2 replicon replication system to investigate whether translation and replication could be implicated as drug targets. BHK-21/DENV2 replicon cells[28] were treated with 5 and 10 µM FV13 and incubated for 72 h before measuring replication efficiency by quantifying replicon RNA. Ribavirin, a known dengue virus replication inhibitor[29], was used as a positive control.
Figure 6 Replicon inhibition study. (A) DENV2/BHK-21 replicon cells were treated with FV13 or ribavirin for 72 h. Percent inhibition was calculated from RT-qPCR of extracted RNA. Error bars represented standard error of means (SEM) from two independent experiments with triplicate samples. Asterisks indicated statistical significance in paired t-test as follows; *p-value < 0.05, **p-value < 0.01, ***p-value < 0.001 compared to 1% DMSO negative control. (B) Percent DENV2/BHK-21 replicon cell viability at 72 h under 5 and 10 µM FV13 treatment. Error bars represented standard error of means (SEM) from three independent experiments, in which each experiment was performed in triplicate.

[3] = Stability of compound in DMSO at room temperature by 1H-NMR; assay type: physicochemical; settings: 4 mM in DMSO, sampled at 24, 72, 120 h
Protocol: The FV13 (6,8-dibromo-5,7-dihydroxyflavone) was tested for the stability by dissolving in DMSO at a concentration of 4 mM FV13 solution. The solution was incubated at room temperature and sampled out at 24, 72, and 120 hours for ^1H-NMR analysis.

## O=c1cc(-c2ccccc2)oc2c(Br)c(O)c(Br)c(O)c12 [FV13, 6,8-dibromo-5,7-dihydroxyflavone]
DENV1 (16007); DENV1 (16007), CC50 in LLC/MK2
  S.I. Selectivity index (CC50/EC50): 19.42
DENV1 (16007); Dengue virus, DENV1, LLC-MK2
  EC50: 2300 ± 1040 nM
DENV2; drug added at 12 hpi or later
  decrease of DENV2 plaque titer from DMSO-treated baseline: 1 log
DENV2; drug added between 2–10 hpi
  decrease of DENV2 plaque titer from DMSO-treated baseline: 2 log
DENV2; drug addition at 12–24 hpi, RT-qPCR, in words
  intracellular viral RNA versus DMSO-treated samples: no titer difference
DENV2; drug addition between 2–8 hpi, RT-qPCR
  decrease of intracellular viral RNA: 1 log
[1]
  fusion inhibition (number of fused cells or syncytial phenomenon): no difference in the number of fused cells or syncytial phenomenon
[2]
  viability at 72 h: > 99%
[3]
  stability (no decomposition by NMR): at least 120 h
